{
  "source": "ChEMBL document CHEMBL1143421",
  "about": "“Population pharmacokinetics at two dose levels and pharmacodynamic profiling of flucloxacillin” (Antimicrob Agents Chemother, 2007)",
  "key": {"Homo sapiens [1]": {"test_system": "Homo sapiens", "assay": "Nonrenal clearance in human at 500 mg, iv infused for 5 mins", "assay_type": "ADME, organism-based", "conditions": "in vivo"}, "Homo sapiens [2]": {"test_system": "Homo sapiens", "assay": "Metabolic stability in human assessed as urinary excretion of unchanged drug level at 1000 mg, iv infused for 5 mins", "assay_type": "ADME, organism-based, Urine", "conditions": "in vivo"}, "Staphylococcus aureus [3]": {"test_system": "Staphylococcus aureus", "assay": "Bacteriostatic activity against methicillin-susceptible Staphylococcus aureus infected human at MIC of 2 mg/l at 2 g, iv administered every 4 hrs as 0.5 hrs infusion", "assay_type": "functional"}, "[4]": {"assay": "Renal clearance in human at a loading dose of 1 g and maintenance dose of 1.2 g/h for 3 hrs", "assay_type": "ADME, organism-based, Kidney", "conditions": "in vivo, iv, read-out: CL_renal (converted)"}, "Homo sapiens [5]": {"test_system": "Homo sapiens", "assay": "Nonrenal clearance in human at 1000 mg, iv infused for 5 mins", "assay_type": "ADME, organism-based", "conditions": "in vivo"}, "[6]": {"assay": "Protein binding in human plasma", "assay_type": "ADME, cell-free", "conditions": "read-out: PPB (converted)"}, "Staphylococcus aureus [7]": {"test_system": "Staphylococcus aureus", "assay": "Bactericidal activity against methicillin-susceptible Staphylococcus aureus infected human at MIC of 0.75 mg/l at 2 g, iv administered every 8 hrs as 4 hrs infusion", "assay_type": "functional"}, "[8]": {"assay": "Plasma concentration in human at 500 mg, iv infused for 5 mins", "assay_type": "ADME, organism-based"}, "[9]": {"assay": "Plasma concentration in human at 1000 mg, iv infused for 5 mins", "assay_type": "ADME, organism-based"}, "[10]": {"assay": "Terminal half life in human at 1000 mg, iv infused for 5 mins", "assay_type": "ADME, organism-based", "conditions": "in vivo, read-out: beta t1/2 (converted)"}, "[11]": {"assay": "Total body clearance in human at 1000 mg, iv infused for 5 mins", "conditions": "in vivo"}, "Staphylococcus aureus [12]": {"test_system": "Staphylococcus aureus", "assay": "Bactericidal activity against methicillin-susceptible Staphylococcus aureus infected human at MIC of 0.75 mg/l at 6 g, iv administered as continuous infusion for 4 hrs", "assay_type": "functional"}, "[13]": {"assay": "Volume of distribution at steady state in human at 500 mg, iv infused for 5 mins", "assay_type": "ADME, organism-based", "conditions": "in vivo, read-out: Vdss"}, "[14]": {"assay": "Total body clearance in human at 500 mg, iv infused for 5 mins", "conditions": "in vivo"}, "Staphylococcus aureus [15]": {"test_system": "Staphylococcus aureus", "assay": "Bacteriostatic activity against methicillin-susceptible Staphylococcus aureus infected human at MIC of 1.5 mg/l at 2 g, iv administered every 8 hrs as 4 hrs infusions", "assay_type": "functional"}, "clinical": {"assay": "clinical", "conditions": "human, in vivo", "description": "Total clearance in human at a loading dose of 1 g and maintenance dose of 1.2 g/h for 3 hrs"}, "Staphylococcus aureus [16]": {"test_system": "Staphylococcus aureus", "assay": "Antibacterial activity against methicillin-susceptible Staphylococcus aureus", "assay_type": "functional"}, "[17]": {"assay": "Volume of distribution at steady state in human at 1000 mg, iv infused for 5 mins", "assay_type": "ADME, organism-based", "conditions": "in vivo, read-out: Vdss"}, "Homo sapiens [18]": {"test_system": "Homo sapiens", "assay": "Metabolic stability in human assessed as urinary excretion of unchanged drug level at 500 mg, iv infused for 5 mins", "assay_type": "ADME, organism-based, Urine", "conditions": "in vivo"}, "Staphylococcus aureus [19]": {"test_system": "Staphylococcus aureus", "assay": "Bactericidal activity against methicillin-susceptible Staphylococcus aureus infected human at MIC of 0.25 mg/l at 1.5 g, iv administered every 6 hrs as 0.5 hrs infusion", "assay_type": "functional"}, "[20]": {"assay": "Mean residence time in human at 1000 mg, iv infused for 5 mins", "assay_type": "ADME, organism-based", "conditions": "in vivo"}, "Staphylococcus aureus [21]": {"test_system": "Staphylococcus aureus", "assay": "Bactericidal activity against methicillin-susceptible Staphylococcus aureus infected human at MIC of 1 mg/l at 2 g, iv administered every 4 hrs as 0.5 hrs infusion", "assay_type": "functional"}, "[22]": {"assay": "Terminal half life in human at 500 mg, iv infused for 5 mins", "assay_type": "ADME, organism-based", "conditions": "in vivo, read-out: beta t1/2 (converted)"}, "Staphylococcus aureus [23]": {"test_system": "Staphylococcus aureus", "assay": "Bacteriostatic activity against methicillin-susceptible Staphylococcus aureus infected human at MIC of 0.75 mg/l at 1.5 g, iv administered every 6 hrs as 0.5 hrs infusion", "assay_type": "functional"}, "Staphylococcus aureus [24]": {"test_system": "Staphylococcus aureus", "assay": "Bacteriostatic activity against methicillin-susceptible Staphylococcus aureus infected human at MIC of 0.75 mg/l at 6 g, iv administered as continuous infusion for 4 hrs", "assay_type": "functional"}, "Homo sapiens [25]": {"species": "Homo sapiens", "assay": "Nonrenal clearance in human at a loading dose of 1 g and maintenance dose of 1.2 g/h for 3 hrs", "assay_type": "ADME, organism-based", "conditions": "in vivo"}, "[26]": {"assay": "Renal clearance in human at 500 mg, iv infused for 5 mins", "assay_type": "ADME, organism-based, Kidney", "conditions": "in vivo, read-out: CL_renal (converted)"}, "[27]": {"assay": "Mean residence time in human at 500 mg, iv infused for 5 mins", "assay_type": "ADME, organism-based", "conditions": "in vivo"}, "[28]": {"assay": "Renal clearance in human at 1000 mg, iv infused for 5 mins", "assay_type": "ADME, organism-based, Kidney", "conditions": "in vivo, read-out: CL_renal (converted)"}, "[29]": {"assay": "Total clearance in human at 1 g, iv infused for 5 mins", "conditions": "in vivo"}},
  "data": [
    {"compound": "Cc1onc(-c2c(F)cccc2Cl)c1C(=O)N[C@@H]1C(=O)N2[C@@H]1SC(C)(C)[C@@H]2C(=O)O", "note": "[FLOXACILLIN]", "values": [
      {"measurement": "CL", "setting": "Homo sapiens [1]", "value": 2.72, "unit": "L/h"},
      {"measurement": "Activity", "setting": "Homo sapiens [2]", "value": 0.65},
      {"measurement": "fT>MIC", "setting": "Staphylococcus aureus [3]", "value": ">=30%"},
      {"measurement": "CL renal at 3 h", "setting": "[4]", "value": 88.3, "unit": "mL/min"},
      {"measurement": "CL", "setting": "Homo sapiens [5]", "value": 2.79, "unit": "L/h"},
      {"measurement": "fraction unbound", "setting": "[6]", "value": 0.054},
      {"measurement": "fT>MIC", "setting": "Staphylococcus aureus [7]", "value": ">=50%"},
      {"measurement": "concentration at 5 min", "setting": "[8]", "value": 86.8, "unit": "µg/mL"},
      {"measurement": "concentration at 5 min", "setting": "[9]", "value": 167, "unit": "µg/mL"},
      {"measurement": "half-life", "setting": "[10]", "value": 1.62, "unit": "h"},
      {"measurement": "clearance at 5 min", "setting": "[11]", "value": 136, "unit": "mL/min"},
      {"measurement": "fT>MIC", "setting": "Staphylococcus aureus [12]", "value": ">=50%"},
      {"measurement": "Vd", "setting": "[13]", "value": 9.63, "unit": "L"},
      {"measurement": "clearance at 5 min", "setting": "[14]", "value": 136, "unit": "mL/min"},
      {"measurement": "fT>MIC", "setting": "Staphylococcus aureus [15]", "value": ">=30%"},
      {"measurement": "clearance at 3 h", "setting": "clinical", "value": 123, "unit": "mL/min"},
      {"measurement": "MIC90", "setting": "Staphylococcus aureus [16]", "value": "≤ 0.5", "unit": "µg/mL"},
      {"measurement": "Vd", "setting": "[17]", "value": 9.97, "unit": "L"},
      {"measurement": "Activity", "setting": "Homo sapiens [18]", "value": 0.66},
      {"measurement": "fT>MIC", "setting": "Staphylococcus aureus [19]", "value": ">=50%"},
      {"measurement": "MRT", "setting": "[20]", "value": 1.22, "unit": "h"},
      {"measurement": "fT>MIC", "setting": "Staphylococcus aureus [21]", "value": ">=50%"},
      {"measurement": "half-life", "setting": "[22]", "value": 1.4, "unit": "h"},
      {"measurement": "Activity", "setting": "Staphylococcus aureus [23]", "value": ">30", "unit": "%"},
      {"measurement": "fT>MIC", "setting": "Staphylococcus aureus [24]", "value": ">=30%"},
      {"measurement": "CL", "setting": "Homo sapiens [25]", "value": 2.1, "unit": "L/h"},
      {"measurement": "CL renal at 5 min", "setting": "[26]", "value": 89.5, "unit": "mL/min"},
      {"measurement": "MRT", "setting": "[27]", "value": 1.18, "unit": "h"},
      {"measurement": "CL renal at 5 min", "setting": "[28]", "value": 88.2, "unit": "mL/min"},
      {"measurement": "clearance at 5 min", "setting": "[29]", "value": 118, "unit": "mL/min"}
    ]}
  ]
}
